Experiments:
[1] = Formation of volatile aldehydes from oleic acid by heating, GC analysis of head space gas (Experiment 1); conditions: oleic acid 100 mg + 100 mg test saccharide, heated at 105° C. for one hour; for Content in HSG, Hexanal: control 0.08; for Content in HSG, Butanal: control 1.04; for Content in HSG, Propanal: control 9.41
Protocol: One hundred milligrams of oleic acid as a fatty acid, 500 mg of cellulose powder, and 1.25 ml of 0.12 M phosphate buffer (pH 6.0) were placed in a 20-ml glass vial. To the glass vial were added 100 mg of either of crystalline trehalose hydrate, crystalline maltitol anhydride, crystalline sorbitol anhydride, crystalline sucrose anhydride, crystalline maltose anhydride, and crystalline neotrehalose hydride as test saccharides (throughout Experiments 1 to 6, these saccharides are designated as “trehalose”, “maltitol”, sorbitol”, “sucrose”, “maltose”, and “neotrehalose”, respectively), followed by sealing the glass vial with a butyl rubber. As a control system, there provided a glass vial, with no a test saccharide, which differed from the test glass vial on this point. These glass vials were heated at 105° C. for one hour, cooled to ambient temperature, and kept in an aluminum heat-block (abbreviated as “heat block, hereinafter”), which had been preheated to 80° C. After 5-minutes standing, two milliliters of a head space gas (abbreviated as “HSG”, hereinafter) were collected from each glass vial with a syringe.
The collected HSG was analyzed for content of volatile aldehydes on gas chromatography (abbreviated as “GC” hereinafter) using “GAS CHROMATOGRAPH GC-14A”, as a GC apparatus; “CAPILLARY COLUMN SUPELCO-WAX”, having 0.25 mm in inner diameter, 60 m in length, and 0.25 μm in thickness, commercialized by Supelco Inc., Tokyo, Japan, as a column for analysis; helium gas at a flow rate of one ml/min as a carrier gas, under temperature conditions of 250° C. for injecting a sample and of a column thermostatic bath temperature being kept at 80° C. for five minutes and then increased up to 240° C. at a rate of 5° C./min. As standard specimens, propanal, butanal, and hexanal as volatile aldehydes were used. Based on the peak area obtained from gas chromatography for the standard specimens and HSG samples, the content of respective volatile aldehydes in HSG was calculated.

[2] = Panel test of body-odor-like smell (KAREI-SHU), linoleic acid heated (Experiment 2); set-up: key: +++: the same or higher level of odor; ++: slightly lower level of odor; +: clearly lower level of odor than that of the control system; conditions: compared with control system
Description: Upon the HSG samples, the level of a body-odor-like smell was examined on a panel test consisting of six professional panels; the panels directly smelled the samples from each glass vial and judged the level of the smells for each samples with test saccharides based on the following four ranks, i.e., the same or higher level of odor (+++), slightly lower level of odor (++), clearly lower level of odor (+), and odorless (−) as compared with the control system. Summing up the data from the panels, the samples tested were totally evaluated.
The content of 2-nonenal in HSG was measured by GC similarly as in Experiment 1 except that linoleic acid was used as a fatty acid and 2-nonenal, a volatile aldehyde, was used as a standard substance. The level of a body-odor-like smell, particularly with respect to KAREI-SHU, in each sample was evaluated by panel test in accordance with the method in Experiment 1.

[3] = Decomposition of fatty acids by heating, linoleic acid (Experiment 5); conditions: heated at 105° C. for one hour with 100 mg test saccharide; control 60.0
Protocol: One hundred milligrams of linoleic acid or 9-hexadecanoic acid as a fatty acid, 500 mg of a cellulose powder, and 1.25 ml of 0.12 M phosphate buffer (pH 6.0) were placed in a 20-ml glass vial. To the glass vial was added 100 mg of either of trehalose, maltitol and sucrose as a test saccharide, followed by sealing with a butyl rubber cap. As a control system, there provided a glass vial with no test saccharide that differed from the test systems only in this point. These vials were heated at 105° C. for one hour. Another glass vial with no heat treatment, which contained the same ingredients as shown in the above, was provided that differed from the test systems only in that it had no heat treatment.
The above test systems with or without heat treatment and the control system were subjected to the following methyl esterification reaction and analyzed on GC to measure the content of fatty acids; To each glass vial was added 20 ml of a mixture solution of chloroform and methanol (=2:1 by volume) to extract fatty acids, and one milliliter of each resulting extract was collected in a 10-ml eggplant-shape flask, concentrated, and dried in vacuo. […]
Two microliters of each of the resulting n-hexane layers were analyzed on GC using “GAS CHROMATOGRAPH GC-14A”, a GC apparatus, commercialized by Shimadzu Corporation, Tokyo, Japan; and “CAPILLARY COLUMN FFAP”, an analysis column having an inner diameter of 0.25 mm, a length of 30 m, and a membrane thickness of 0.25 μm, commercialized by GL Sciences Inc., Tokyo, Japan, under the conditions of using helium gas as a carrier at a flow rate of 1 ml/min, at a temperature of 250° C. as a sample injection temperature, a column thermostatic bath temperature being kept at 80° C. for five minutes and then increased up to 240° C. at a rate of 5° C./min, and a hydrogen flame ionization detector for detecting fatty acids. Based on the peak area of the obtained gas chromatograms, it was calculated the content of fatty acids, i.e., linoleic acid and 9-hexadecanoic acid, before or after the heat treatment in the test- and control-systems. […]

[4] = Formation of 2-nonenal from 9-hexadecanoic acid at the temperature of human body, GC of HSG (Experiment 6); conditions: 37° C., 9,000 lux
Protocol: One hundred milligrams of 9-hexadecanoic acid as a fatty acid, 500 mg of a cellulose powder, and 1.25 ml of 0.12 M phosphate buffer (pH 6.0) were placed in a 20-ml glass vial. To the glass vial was added 100 mg of either of trehalose, maltitol and sucrose as a test saccharide, followed by sealing with a butyl rubber cap for use as a test system. As a control system, there provided a glass vial with no test saccharide that differed from the test systems only in this point. In both the test- and control-systems, they were respectively provided in doublet.
These glass vials were allowed to stand in a 37° C.-thermostatic-bath under the irradiation of 9,000 lux by a fluorescent lamp. At 3-days of standing, one of each pair of the vials containing the same composition, and 7-days of standing, the other vial of each resting pair of the vials were transferred to a heat block, which had been preheated to 80° C. and then kept therein for five minutes, followed by analyzing the content of 2-nonenal in HSG in each vial by GC similarly as in Experiment 2. After the collection of HSG, the smell from glass vials was evaluated by panel test in accordance with the method in Experiment 2.

[5] = 3-days of standing, control 0.03
[6] = 7-days of standing, control 16.8

OC[C@H]1O[C@H](O[C@H]2O[C@H](CO)[C@@H](O)[C@H](O)[C@H]2O)[C@H](O)[C@@H](O)[C@@H]1O [Trehalose, trehalose]
Content in HSG, Hexanal [1]: 0.02 µg/mL | Content in HSG, Butanal [1]: 0.19 µg/mL | Content in HSG, Propanal [1]: 3.47 µg/mL | Evaluation of panel test [2]: + | Decomposition percentage, Linoleic acid [3]: 25.2% | Content of 2-nonenal in HSG [4, 5]: 0.00 µg/mL | Content of 2-nonenal in HSG [4, 6]: 2.64 µg/mL

OC[C@@H](O)[C@@H](O[C@H]1O[C@H](CO)[C@@H](O)[C@H](O)[C@H]1O)[C@H](O)[C@@H](O)CO [Maltitol, maltitol]
Content in HSG, Hexanal [1]: 0.03 µg/mL | Content in HSG, Butanal [1]: 1.02 µg/mL | Content in HSG, Propanal [1]: 4.09 µg/mL | Evaluation of panel test [2]: + | Decomposition percentage, Linoleic acid [3]: 33.4% | Content of 2-nonenal in HSG [4, 5]: 0.00 µg/mL | Content of 2-nonenal in HSG [4, 6]: 2.77 µg/mL

OC[C@H]1O[C@@](CO)(O[C@H]2O[C@H](CO)[C@@H](O)[C@H](O)[C@H]2O)[C@@H](O)[C@@H]1O [Sucrose, sucrose]
Content in HSG, Hexanal [1]: 0.07 µg/mL | Content in HSG, Butanal [1]: 1.11 µg/mL | Content in HSG, Propanal [1]: 9.98 µg/mL | Evaluation of panel test [2]: +++ | Decomposition percentage, Linoleic acid [3]: 58.0% | Content of 2-nonenal in HSG [4, 5]: 0.26 µg/mL | Content of 2-nonenal in HSG [4, 6]: 16.4 µg/mL

Source: patent US6497862B2, “Composition for inhibiting body odor and uses thereof” (Kabushiki Kaisha Hayashibara, priority 2000, dated 2002)
